In patent publication US4994477A, “Heterocyclic renin inhibitors” (Abbott Laboratories, priority 1988, dated 1991):

Target: T1, human renal renin (Homo sapiens, UniProt P00797)
T1 construct: human renal renin, free from acid proteolytic activity; from tissue; host or cells: human kidney (from the word 'renal')
T1 sequence (P00797 67-406): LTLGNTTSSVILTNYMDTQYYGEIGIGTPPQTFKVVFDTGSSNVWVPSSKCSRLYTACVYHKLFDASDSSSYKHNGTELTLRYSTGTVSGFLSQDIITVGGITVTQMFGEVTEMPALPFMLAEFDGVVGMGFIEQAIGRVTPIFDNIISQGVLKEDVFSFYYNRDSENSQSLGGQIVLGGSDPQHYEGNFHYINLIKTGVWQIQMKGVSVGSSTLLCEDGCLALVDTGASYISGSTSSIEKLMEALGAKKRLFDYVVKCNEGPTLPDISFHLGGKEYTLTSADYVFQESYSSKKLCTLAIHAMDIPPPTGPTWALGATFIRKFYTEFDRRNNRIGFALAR
Assay: inhibition of human renal renin in vitro, angiotensin I formed measured by radioimmunoassay
Type: biochemical
Settings: human angiotensinogen substrate, 37 degrees C, pH 6.0
Procedure: At the end of the incubation, the amount of angiotensin I formed is measured by radioimmunoassay and the molar concentration required to cause 50% inhibition, expressed as the IC50, is calculated.

An IC50 of 89 nM was found for `CCN1C[C@@H]([C@H](O)[C@H](CC2CCCCC2)NC(=O)C(Cc2cc[nH]n2)N2Cc3c([nH]c4ccccc34)C2=O)OC1=O` (stereo partly drawn) [Example 89, (1'RS,2"S,3"R,5"'S)-2-[1-[N-[1-Cyclohexyl-3-hydroxy-3-(3-ethyloxazolidin-2-on-5-yl)-2-propyl]carbamoyl]-2-(3-pyrazolyl)ethyl]-1,2,3,4-tetrahydropyrrolo[3,4-b]indol-3-one] in this work.
An IC50 of 10000 nM was found for `O=C(N[C@@H](Cc1c[nH]cn1)C(=O)NCC(O)CO)c1[nH]c2ccccc2c1CCc1ccccc1` (stereo partly shown) [Example 130, [3-(2-Phenylethyl)indolyl-2-carbonyl]-His Amide of 3-Amino-1,2-propanediol] in this work.
An IC50 of 130 nM was found for `CC(C)C[C@H](O)[C@H](O)[C@H](CC1CCCCC1)NC(=O)[C@H](CCC(=O)OCc1ccccc1)NC(=O)c1cc2ccccc2[nH]1` [Example 37, N-(Indolyl-2-carbonyl)-γ-benzyl-Glu Amide of 2(S)-Amino-1-cyclohexyl-3(R),4(S)-dihydroxy-6-methylheptane] in this work.
An IC50 of 8.7 nM was found for `CC(C)C[C@H](O)[C@H](O)[C@H](CC1CCCCC1)NC(=O)[C@H](Cc1c[nH]cn1)NC(=O)c1ccc2ccccc2n1` [Example 110, N-(Quinolinyl-2-carbonyl)-His Amide of 2(S)-Amino-1-cyclohexyl-3(R),4(S)-dihydroxy-6-methylheptane] in this work.
An IC50 of 31 nM was found for `CC(C)C[C@H](O)[C@H](O)[C@H](CC1CCCCC1)NC(=O)[C@H](Cc1c[nH]cn1)NC(=O)c1nc2ccccc2s1` [Example 45, N-(Benzothiazolyl-2-carbonyl)-His Amide of 2(S)-Amino-1-cyclohexyl-3(R),4(S)-dihydroxy-6-methylheptane] in this work.
An IC50 of 3800 nM was found for `O=C(N[C@@H](Cc1c[nH]cn1)C(=O)NCC(O)CO)c1[nH]c2ccccc2c1CCCC1CCCCC1` (stereo partly shown) [Example 125, N-[3-(3-Cyclohexylpropyl)indolyl-2-carbonyl]-His Amide of 3-Amino-1,2-propanediol] in this work.
An IC50 of 36 nM was found for `CCN1C[C@@H]([C@H](O)[C@H](CC2CCCCC2)NC(=O)[C@H](Cc2c[nH]cn2)NC(=O)c2ccc3ccccc3n2)OC1=O` [Example 109, N-(Quinolinyl-2-carbonyl)-His Amide of (2'S,1'R,5S)-3-Ethyl-5-(1-hydroxy-2-amino-3-cyclohexylpropyl)oxazolidin-2-one] in this work.
An IC50 of 9.5 nM was found for `CC(C)C[C@H](O)[C@H](O)[C@H](CC1CCCCC1)NC(=O)[C@H](Cc1cc[nH]n1)N1Cc2c([nH]c3ccccc23)C1=O` [Example 87, (1'S,2"S,3"R,4"S)-2-[1-[N-(1-Cyclohexyl-3,4-dihydroxy-6-methyl-2-heptyl)carbamoyl]-2-(3-pyrazolyl)ethyl]-1,2,3,4-tetrahydropyrrolo[3,4-b]indol-3-one] in this work.
An IC50 of 10 nM was found for `CC(C)C[C@H](O)[C@H](O)[C@H](CC1CCCCC1)NC(=O)[C@H](Cc1c[nH]cn1)NC(=O)c1cc2ccccc2o1` [Example 43, N-(Benzofuranyl-2-carbonyl)-His Amide of 2(S)-Amino-1-cyclohexyl-3(R),4(S)-dihydroxy-6-methylheptane] in this work.
An IC50 of 44 nM was found for `CCCCC(C(=O)N[C@@H](CC1CCCCC1)[C@@H](O)[C@@H](O)CC(C)C)N1Cc2c([nH]c3ccccc23)C1=O` (stereo partly drawn) [Example 93, (1'RS,2"S,3"R,4"S)-2-[1-[N-(1-Cyclohexyl-3,4-dihydroxy-6-methyl-2-heptyl)carbamoyl]pentyl]-1,2,3,4-tetrahydropyrrolo[3,4-b]indol-3-one] in this work.
An IC50 of 27 nM was found for `COCOC[C@H](NC(=O)c1cc2ccccc2[nH]1)C(=O)N[C@@H](CC1CCCCC1)[C@@H](O)[C@@H](O)CC(C)C` [Example 150, N-(Indolyl-2-carbonyl)-(O-methoxymethyl)Ser Amide of 2(S)-Amino-1-cyclohexyl-3(R),4(S)-dihydroxy-6-methylheptane] in this work.
An IC50 of 12 nM was found for `CCN1C[C@@H]([C@H](O)[C@H](CC2CCCCC2)NC(=O)[C@H](Cc2c[nH]cn2)NC(=O)c2cc3ccccc3[nH]2)OC1=O` [Example 51, N-(Indolyl-2-carbonyl)-His-Amide of (2'S,1'R,5S)-3-Ethyl-5-(1'-hydroxy-2'-amino-3'-cyclohexylpropyl)oxazolidin-2one] in this work.
An IC50 of 8.2 nM was found for `CC(C)C[C@H](O)[C@H](O)[C@H](CC1CCCCC1)NC(=O)[C@H](Cc1c[nH]cn1)N1Cc2c([nH]c3ccccc23)C1=O` [Example 58, (1'S,2"S,3"R,4"S)-2-[1-[N-(1-Cyclohexyl-3,4-dihydroxy-6-methyl-2-heptyl)carbamoyl]-2-(4-imidazolyl)ethyl]-1,2,3,4-tetrahydropyrrolo[3,4-b]indol-3-one] in this work.
An IC50 of 170 nM was found for `CC(C)C[C@H](O)[C@H](O)[C@H](CC1CCCCC1)NC(=O)[C@H](Cc1c[nH]cn1)NC(=O)c1nc2ccccc2n1Cc1ccccc1` [Example 48] in this work.
An IC50 of 67 nM was found for `CC(C)C[C@H](O)[C@H](O)[C@H](CC1CCCCC1)NC(=O)[C@H](Cc1c[nH]cn1)N1CCc2c([nH]c3ccccc23)C1=O` [Example 101, (1'S,2"S,3"R,4"S)-2-[1-[N-(1-Cyclohexyl-3,4-dihydroxy-6-methyl-2-heptyl)carbamoyl]-2-(4-imidazolyl)ethyl]-1,2,3,4-tetrahydro-9H-pyrido[3,4-b]indol-1-one] in this work.
An IC50 of 200 nM was found for `CC(C)C[C@H](O)[C@H](O)[C@H](CC1CCCCC1)NC(=O)CN1Cc2c([nH]c3ccccc23)C1=O` [Example 75, (2'S,3'R,4'S)-2-[N-(1-cyclohexyl-3,4-dihydroxy-6-methyl-2-heptyl)carbamoyl]methyl-1,2,3,4-tetrahydropyrrolo[3,4-b]indol-3-one] in this work.
An IC50 of 15 nM was found for `CCCC[C@H](NC(=O)c1cc2ccccc2[nH]1)C(=O)N[C@@H](CC1CCCCC1)[C@@H](O)[C@@H](O)CC(C)C` [Example 40, N-(Indolyl-2-carbonyl)-Nle Amide of 2(S)-Amino-1-cyclohexyl-3(R),4(S)-dihydroxy-6-methylheptane] in this work.
An IC50 of 19 nM was found for `CCN1C[C@@H]([C@H](O)[C@H](CC2CCCCC2)NC(=O)[C@H](Cc2c[nH]cn2)N2Cc3c([nH]c4ccccc34)C2=O)OC1=O` [Example 59, (1'S,2"S,3"R,5'"S)-2-[1-[N-[1-Cyclohexyl-3-hydroxy-3-(3-ethyloxazolidin-2-on-5-yl)-2-propyl]carbamoyl]-2-(4-imidazolyl)ethyl]-1,2,3,4-tetrahydropyrrolo[3,4-b]indol-3-one] in this work.
An IC50 of 7000 nM was found for `O=C(N[C@@H](Cc1c[nH]cn1)C(=O)NCC(O)CO)c1[nH]c2ccccc2c1CCC=CC1CCCCC1` (stereo partly shown) [Example 127, N-[3-(4-Cyclohexylbut-3-enyl)indolyl-2-carbonyl]-His Amide of 3-Amino-1,2-propanediol] in this work.
An IC50 of 200 nM was found for `CC1=C(C(=O)N[C@@H](Cc2c[nH]cn2)C(=O)N[C@@H](CC2CCCCC2)[C@@H](O)[C@@H](O)CC(C)C)Cc2ccccc21` [Example 42, N-(3-Methylindenyl-2-carbonyl)-His Amide of 2(S)-Amino-1-cyclohexyl-3(R),4(S)-dihydroxy-6-methylheptane] in this work.
An IC50 of 3.3 nM was found for `CC(C)C[C@H](O)[C@H](O)[C@H](CC1CCCCC1)NC(=O)[C@H](Cc1c[nH]cn1)NC(=O)c1cc2ccccc2[nH]1` [Example 35, N-(Indolyl-2-carbonyl)-His Amide of 2(S)-Amino-1-cyclohexyl-3(R),4'(S)-dihydroxy-6-methylheptane] in this work.
An IC50 of 66 nM was found for `CCCC[C@@H](C(=O)N[C@@H](CC1CCCCC1)[C@@H](O)[C@@H](O)CC(C)C)N1CCc2c([nH]c3ccccc23)C1=O` [Example 96] in this work.
